The values below come from ChEMBL document CHEMBL4715917 (Bioorg Med Chem, 2021).

Experiment [1] has as its system A549. Kind of experiment: Cytotoxicity against human A549 cells harboring wild type EGFR assessed as reduction in cell viability after 72 hrs by MTT assay. The experiment is classed as functional, cell-based. To be noted: A549, 72 h. (Tetrazolium dyes change colour on reduction, which living cells bring about.)
In experiment [2] the test system is NCI-H1975. As to the kind of experiment: Cytotoxicity against human NCI-H1975 cells harboring T790M/L858R mutant assessed as reduction in cell viability after 72 hrs by MTT assay. The experiment is classed as functional, cell-based. To be noted: NCI-H1975, 72 h.
The target in experiment [3] is Epidermal growth factor receptor (Homo sapiens, UniProt P00533).
Chain of Epidermal growth factor receptor (Homo sapiens, UniProt P00533) (P00533 whole entry): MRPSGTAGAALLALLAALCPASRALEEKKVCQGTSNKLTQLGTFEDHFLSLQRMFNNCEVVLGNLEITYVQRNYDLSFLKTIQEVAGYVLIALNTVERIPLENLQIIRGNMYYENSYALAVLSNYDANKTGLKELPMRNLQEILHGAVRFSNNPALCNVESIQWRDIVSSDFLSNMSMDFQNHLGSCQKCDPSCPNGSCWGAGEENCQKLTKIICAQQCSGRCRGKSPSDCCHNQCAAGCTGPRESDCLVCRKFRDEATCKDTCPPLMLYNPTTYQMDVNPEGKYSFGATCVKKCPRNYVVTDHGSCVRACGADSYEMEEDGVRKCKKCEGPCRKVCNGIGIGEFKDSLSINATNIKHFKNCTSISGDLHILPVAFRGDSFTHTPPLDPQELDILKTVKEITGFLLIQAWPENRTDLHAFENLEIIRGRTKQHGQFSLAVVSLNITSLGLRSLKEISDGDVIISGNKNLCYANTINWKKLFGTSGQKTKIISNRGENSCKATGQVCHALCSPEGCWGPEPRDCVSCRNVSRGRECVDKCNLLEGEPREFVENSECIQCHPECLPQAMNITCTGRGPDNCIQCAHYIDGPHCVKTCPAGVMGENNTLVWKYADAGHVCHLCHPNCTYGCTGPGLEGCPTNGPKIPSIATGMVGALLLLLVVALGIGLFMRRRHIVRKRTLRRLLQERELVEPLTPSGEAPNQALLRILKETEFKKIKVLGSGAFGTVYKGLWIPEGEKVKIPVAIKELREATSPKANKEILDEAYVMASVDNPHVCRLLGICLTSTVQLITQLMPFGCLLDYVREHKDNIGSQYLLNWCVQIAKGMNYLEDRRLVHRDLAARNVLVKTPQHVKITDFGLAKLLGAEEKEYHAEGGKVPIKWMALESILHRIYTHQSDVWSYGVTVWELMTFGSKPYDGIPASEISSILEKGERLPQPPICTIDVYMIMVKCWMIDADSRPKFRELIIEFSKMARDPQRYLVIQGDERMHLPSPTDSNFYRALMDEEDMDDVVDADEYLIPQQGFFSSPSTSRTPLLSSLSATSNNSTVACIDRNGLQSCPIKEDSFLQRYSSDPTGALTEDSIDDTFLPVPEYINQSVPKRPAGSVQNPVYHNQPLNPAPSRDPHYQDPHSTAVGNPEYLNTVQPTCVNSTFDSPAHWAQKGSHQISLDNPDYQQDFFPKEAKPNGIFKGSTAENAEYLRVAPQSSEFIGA
Description: Inhibition of recombinant wild type EGFR (696 to C terminal end) (unknown origin) using poly (Glu-Tyr) as substrate preincubated for 30 mins followed by substrate addition and measured after 30 mins by ELISA
In experiment [4] the target is Epidermal growth factor receptor (Homo sapiens, UniProt P00533, L858R/T790M).
Chain of Epidermal growth factor receptor (Homo sapiens, UniProt P00533, L858R/T790M) (P00533 25-1210 T790M/L858R limits assumed): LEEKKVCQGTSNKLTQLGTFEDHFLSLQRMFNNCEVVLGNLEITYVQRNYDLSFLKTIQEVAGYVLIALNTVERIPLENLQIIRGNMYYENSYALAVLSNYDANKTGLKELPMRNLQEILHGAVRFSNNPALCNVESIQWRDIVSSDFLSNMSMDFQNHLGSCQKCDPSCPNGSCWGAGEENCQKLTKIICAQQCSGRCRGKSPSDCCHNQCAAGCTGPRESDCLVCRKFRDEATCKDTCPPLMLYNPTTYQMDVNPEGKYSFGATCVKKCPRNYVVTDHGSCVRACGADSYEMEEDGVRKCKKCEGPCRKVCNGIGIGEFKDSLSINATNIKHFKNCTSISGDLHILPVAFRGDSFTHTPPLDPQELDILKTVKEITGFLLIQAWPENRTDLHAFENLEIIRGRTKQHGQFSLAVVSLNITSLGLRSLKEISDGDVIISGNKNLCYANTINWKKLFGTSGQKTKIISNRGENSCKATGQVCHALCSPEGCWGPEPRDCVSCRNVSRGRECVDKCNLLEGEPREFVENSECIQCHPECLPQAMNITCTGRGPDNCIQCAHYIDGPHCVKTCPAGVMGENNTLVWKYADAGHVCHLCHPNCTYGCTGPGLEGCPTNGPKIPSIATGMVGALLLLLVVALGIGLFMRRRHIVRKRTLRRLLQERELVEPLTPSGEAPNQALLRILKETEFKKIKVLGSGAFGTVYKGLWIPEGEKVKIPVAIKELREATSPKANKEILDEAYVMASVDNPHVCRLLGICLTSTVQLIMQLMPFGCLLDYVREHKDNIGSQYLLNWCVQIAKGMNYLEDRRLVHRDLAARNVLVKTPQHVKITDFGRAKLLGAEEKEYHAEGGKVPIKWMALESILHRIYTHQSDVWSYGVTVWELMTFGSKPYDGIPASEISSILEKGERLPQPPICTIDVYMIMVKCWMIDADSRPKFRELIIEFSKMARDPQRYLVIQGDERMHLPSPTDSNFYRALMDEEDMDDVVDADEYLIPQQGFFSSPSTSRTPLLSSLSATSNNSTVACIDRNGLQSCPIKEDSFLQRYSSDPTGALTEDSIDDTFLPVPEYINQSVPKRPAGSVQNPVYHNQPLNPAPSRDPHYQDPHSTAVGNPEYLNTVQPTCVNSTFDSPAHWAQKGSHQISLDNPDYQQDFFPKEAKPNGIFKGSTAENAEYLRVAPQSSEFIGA

For `COc1ccc(-c2c3c4cc(OC)c(O)cc4[nH]c(=O)c3n3ccc4cc(O)c(OC)cc4c23)cc1O`, the values for the IC50 in experiment [1] and in experiment [2] were 15.5 nM and 1.9 nM, respectively.

On to `COc1ccc(-c2c3c4cc(OC)c(OCCCN(C)C)cc4[nH]c(=O)c3n3ccc4cc(O)c(OC)cc4c23)cc1O`, for which the IC50 (usually the concentration that inhibits the measured activity by half) in experiment [1] is 1040 nM; in experiment [3], 15.5 nM; in experiment [4] it was 5.7 nM; in experiment [2], 350 nM.

Turning to `COc1ccc(-c2c3c4cc(OCCCN(C)C)c(O)cc4[nH]c(=O)c3n3ccc4cc(O)c(OC)cc4c23)cc1O`, the IC50 in experiment [3] came out at 23.6 nM; in experiment [4] it was 16.6 nM.

In the case of `COc1ccc(-c2c3c4cc(O)c(OCCCN(C)C)cc4[nH]c(=O)c3n3ccc4cc(O)c(OC)cc4c23)cc1O`, the values for the IC50 in experiment [3] and in experiment [4] were 24.7 nM and 10.2 nM, respectively.

For `COc1ccc(-c2c3c4cc(OCCCN(C)C)c(OCCCN(C)C)cc4[nH]c(=O)c3n3ccc4cc(O)c(OC)cc4c23)cc1O`, the IC50 was found to be 2040 nM in experiment [1], 4.6 nM in experiment [3], 1.7 nM in experiment [4] and 1360 nM in experiment [2].

As for `COc1ccc(-c2c3c4cc(OC)c(OC)cc4[nH]c(=O)c3n3ccc4cc(O)c(OC)cc4c23)cc1O`, the IC50 in experiment [3] came to 259 nM; in experiment [4], 65.3 nM.
